Laboratory results from US12383545B1, “Treatment of migraine” (priority 2018, dated 2025).

Test system: patients with migraine (4 to 14 migraine/probable migraine headache days)
Experiment: Example 5: randomized double-blind placebo-controlled 12-week dose-regimen study (QD and BID), migraine/probable migraine (MPM) headache days efficacy
Assay type: in vivo, human
Conditions: for At Least 50% Reduction in Mean Monthly MPM Headache Days, Non-responders / At Least 50% Reduction in Mean Monthly MPM Headache Days, Odds ratio vs. Placebo / At Least 50% Reduction in Mean Monthly MPM Headache Days, Responders / Change from Baseline in Mean Monthly Acute Medication Use Days, CFB MMRM LS Mean / Change from Baseline in Mean Monthly Acute Medication Use Days, CGP vs. Placebo LSMD / Change from Baseline in Mean Monthly Headache Days, CFB MMRM LS Mean / Change from Baseline in Mean Monthly Headache Days, CGP vs. Placebo LSMD / Change from Baseline in Mean Monthly MPM Headache Days, CFB MMRM LS Mean / Change from Baseline in Mean Monthly MPM Headache Days, CGP vs. Placebo LSMD: across the 12-Week Treatment Period, mITT Population; for Non-responders (at least 100% reduction in mean monthly MPM headache days not met), (%) / Non-responders (at least 100% reduction in mean monthly MPM headache days not met), n / Odds ratio vs. Placebo, at least 100% reduction in mean monthly MPM headache days / Responders (at least 100% reduction in mean monthly MPM headache days), (%) / Responders (at least 100% reduction in mean monthly MPM headache days), n: Weeks 1-4, mITT population
Experimental: In a multicenter, randomized, double-blind, placebo-controlled, parallel-group study designed to evaluate the efficacy, safety, and tolerability of multiple doses and doses regimens of atogepant for the prevention of migraine. The patients were randomized (2:1:2:1:2:1) to 1 of 6 treatment groups: placebo, atogepant 10 mg QD, atogepant 30 mg QD, atogepant 30 mg BID, atogepant 60 mg QD, and atogepant 60 mg BID.
This study consisted of a 4-week screening and baseline period and a 12-week double-blind treatment period, which was followed by a 4-week safety follow-up period. Total study duration is 20-weeks.
To be randomized, eligible patients had to be 18 to 75 years of age (inclusive), have a history of migraine with or without aura for at least 1 year consistent with a diagnosis according to the International Classification of Headache Disorders criteria, 3rd edition, beta version, have experienced 4 to 14 migraine/probable migraine headache days and <15 headache days in the 28-day baseline period. Patients who had clinically significant hematologic, endocrine, cardiovascular, cerebrovascular, pulmonary, renal, hepatic, gastrointestinal, or neurologic disease were excluded from the study.
A total of 834 patients were randomized to double-blind treatment (ITT population), and 825 patients took at least 1 dose of double-blind IP (safety population). […] The primary efficacy variable was the change from baseline in mean monthly migraine/probable migraine headache days across the 12-week treatment period. The secondary efficacy variables were the change from baseline in mean monthly headache days across the 12-week treatment period, proportion of patients with at least a 50% reduction in mean monthly migraine/probable migraine headache days across the 12-week treatment period, and the change from baseline in mean monthly acute medication use days across the 12-week treatment period.

C[C@@H]1[C@H](c2c(F)ccc(F)c2F)C[C@H](NC(=O)c2cnc3c(c2)C[C@@]2(C3)C(=O)Nc3ncccc32)C(=O)N1CC(F)(F)F [atogepant]
At Least 50% Reduction in Mean Monthly MPM Headache Days, Non-responders (Atogepant 10 mg QD): 39 (42.4) n (%) | At Least 50% Reduction in Mean Monthly MPM Headache Days, Odds ratio vs. Placebo (Atogepant 10 mg QD): 1.50 | At Least 50% Reduction in Mean Monthly MPM Headache Days, Responders (Atogepant 10 mg QD): 53 (57.6) n (%) | Change from Baseline in Mean Monthly Acute Medication Use Days, CFB MMRM LS Mean (Atogepant 10 mg QD): -3.71 days | Change from Baseline in Mean Monthly Acute Medication Use Days, CGP vs. Placebo LSMD (Atogepant 10 mg QD): -1.30 days | Change from Baseline in Mean Monthly Headache Days, CFB MMRM LS Mean (Atogepant 10 mg QD): -4.31 days | Change from Baseline in Mean Monthly Headache Days, CGP vs. Placebo LSMD (Atogepant 10 mg QD): -1.38 days | Change from Baseline in Mean Monthly MPM Headache Days, CFB MMRM LS Mean (Atogepant 10 mg QD): -4.00 days | Change from Baseline in Mean Monthly MPM Headache Days, CGP vs. Placebo LSMD (Atogepant 10 mg QD): -1.15 days | At Least 50% Reduction in Mean Monthly MPM Headache Days, Non-responders (Atogepant 30 mg BID): 33 (41.8) n (%) | At Least 50% Reduction in Mean Monthly MPM Headache Days, Odds ratio vs. Placebo (Atogepant 30 mg BID): 1.83 | At Least 50% Reduction in Mean Monthly MPM Headache Days, Responders (Atogepant 30 mg BID): 46 (58.2) n (%) | Change from Baseline in Mean Monthly Acute Medication Use Days, CFB MMRM LS Mean (Atogepant 30 mg BID): -3.77 days | Change from Baseline in Mean Monthly Acute Medication Use Days, CGP vs. Placebo LSMD (Atogepant 30 mg BID): -1.35 days | Change from Baseline in Mean Monthly Headache Days, CFB MMRM LS Mean (Atogepant 30 mg BID): -4.23 days | Change from Baseline in Mean Monthly Headache Days, CGP vs. Placebo LSMD (Atogepant 30 mg BID): -1.30 days | Change from Baseline in Mean Monthly MPM Headache Days, CFB MMRM LS Mean (Atogepant 30 mg BID): -4.23 days | Change from Baseline in Mean Monthly MPM Headache Days, CGP vs. Placebo LSMD (Atogepant 30 mg BID): -1.39 days | At Least 50% Reduction in Mean Monthly MPM Headache Days, Non-responders (Atogepant 30 mg QD): 85 (46.7) n (%) | At Least 50% Reduction in Mean Monthly MPM Headache Days, Odds ratio vs. Placebo (Atogepant 30 mg QD): 1.46 | At Least 50% Reduction in Mean Monthly MPM Headache Days, Responders (Atogepant 30 mg QD): 97 (53.3) n (%) | Change from Baseline in Mean Monthly Acute Medication Use Days, CFB MMRM LS Mean (Atogepant 30 mg QD): -3.86 days | Change from Baseline in Mean Monthly Acute Medication Use Days, CGP vs. Placebo LSMD (Atogepant 30 mg QD): -1.44 days | Change from Baseline in Mean Monthly Headache Days, CFB MMRM LS Mean (Atogepant 30 mg QD): -4.17 days | Change from Baseline in Mean Monthly Headache Days, CGP vs. Placebo LSMD (Atogepant 30 mg QD): -1.24 days | Change from Baseline in Mean Monthly MPM Headache Days, CFB MMRM LS Mean (Atogepant 30 mg QD): -3.76 days | Change from Baseline in Mean Monthly MPM Headache Days, CGP vs. Placebo LSMD (Atogepant 30 mg QD): -0.91 days | At Least 50% Reduction in Mean Monthly MPM Headache Days, Non-responders (Atogepant 60 mg BID): 33 (37.9) n (%) | At Least 50% Reduction in Mean Monthly MPM Headache Days, Odds ratio vs. Placebo (Atogepant 60 mg BID): 2.03 | At Least 50% Reduction in Mean Monthly MPM Headache Days, Responders (Atogepant 60 mg BID): 54 (62.1) n (%) | Change from Baseline in Mean Monthly Acute Medication Use Days, CFB MMRM LS Mean (Atogepant 60 mg BID): -3.64 days | Change from Baseline in Mean Monthly Acute Medication Use Days, CGP vs. Placebo LSMD (Atogepant 60 mg BID): -1.22 days | Change from Baseline in Mean Monthly Headache Days, CFB MMRM LS Mean (Atogepant 60 mg BID): -4.32 days | Change from Baseline in Mean Monthly Headache Days, CGP vs. Placebo LSMD (Atogepant 60 mg BID): -1.39 days | Change from Baseline in Mean Monthly MPM Headache Days, CFB MMRM LS Mean (Atogepant 60 mg BID): -4.14 days | Change from Baseline in Mean Monthly MPM Headache Days, CGP vs. Placebo LSMD (Atogepant 60 mg BID): -1.29 days | At Least 50% Reduction in Mean Monthly MPM Headache Days, Non-responders (Atogepant 60 mg QD): 85 (48.0) n (%) | At Least 50% Reduction in Mean Monthly MPM Headache Days, Odds ratio vs. Placebo (Atogepant 60 mg QD): 1.42 | At Least 50% Reduction in Mean Monthly MPM Headache Days, Responders (Atogepant 60 mg QD): 92 (52.0) n (%) | Change from Baseline in Mean Monthly Acute Medication Use Days, CFB MMRM LS Mean (Atogepant 60 mg QD): -3.53 days | Change from Baseline in Mean Monthly Acute Medication Use Days, CGP vs. Placebo LSMD (Atogepant 60 mg QD): -1.11 days | Change from Baseline in Mean Monthly Headache Days, CFB MMRM LS Mean (Atogepant 60 mg QD): -3.86 days | Change from Baseline in Mean Monthly Headache Days, CGP vs. Placebo LSMD (Atogepant 60 mg QD): -0.94 days | Change from Baseline in Mean Monthly MPM Headache Days, CFB MMRM LS Mean (Atogepant 60 mg QD): -3.55 days | Change from Baseline in Mean Monthly MPM Headache Days, CGP vs. Placebo LSMD (Atogepant 60 mg QD): -0.70 days | Non-responders (at least 100% reduction in mean monthly MPM headache days not met), (%) (Atogepant 10 mg QD (N = 92)): (81.5) % | Non-responders (at least 100% reduction in mean monthly MPM headache days not met), n (Atogepant 10 mg QD (N = 92)): 75 | Odds ratio vs. Placebo, at least 100% reduction in mean monthly MPM headache days (Atogepant 10 mg QD (N = 92)): 6.39 | Responders (at least 100% reduction in mean monthly MPM headache days), (%) (Atogepant 10 mg QD (N = 92)): (18.5) % | Responders (at least 100% reduction in mean monthly MPM headache days), n (Atogepant 10 mg QD (N = 92)): 17 | Non-responders (at least 100% reduction in mean monthly MPM headache days not met), (%) (Atogepant 30 mg BID (N = 79)): (83.5) % | Non-responders (at least 100% reduction in mean monthly MPM headache days not met), n (Atogepant 30 mg BID (N = 79)): 66 | Odds ratio vs. Placebo, at least 100% reduction in mean monthly MPM headache days (Atogepant 30 mg BID (N = 79)): 5.23 | Responders (at least 100% reduction in mean monthly MPM headache days), (%) (Atogepant 30 mg BID (N = 79)): (16.5) % | Responders (at least 100% reduction in mean monthly MPM headache days), n (Atogepant 30 mg BID (N = 79)): 13 | Non-responders (at least 100% reduction in mean monthly MPM headache days not met), (%) (Atogepant 30 mg QD (N = 182)): (80.2) % | Non-responders (at least 100% reduction in mean monthly MPM headache days not met), n (Atogepant 30 mg QD (N = 182)): 146 | Odds ratio vs. Placebo, at least 100% reduction in mean monthly MPM headache days (Atogepant 30 mg QD (N = 182)): 7.05 | Responders (at least 100% reduction in mean monthly MPM headache days), (%) (Atogepant 30 mg QD (N = 182)): (19.8) % | Responders (at least 100% reduction in mean monthly MPM headache days), n (Atogepant 30 mg QD (N = 182)): 36
